According to patent publication US5166198A, “Antiviral phosphonylalkoxy purines” (Beecham p.l.c., priority 1989, dated 1992):
Values after ≈ are worked out from the molar mass of the structure shown.

What was measured:
Format in all cases: cell-based
[1] = tested on: herpes simplex virus 2 (HSV-2; strain MS); experiment: Plaque Reduction Test for Herpes Simplex Virus 2 (in MRC-5 cells); settings: Human alphaherpesvirus 2, MRC5; MS strain in MRC-5 cells; read-out: IC50 Herpes Simplex virus Type 2
Protocol: (§1) 1. Plaque Reduction Test for Herpes Simplex Viruses 1 and 2.
(§2) Cells (Vero or MRC-5) were grown to confluence in 24 well multi-dishes (well diameter=1.5 cm). The drained cell monolayers were each infected with approximately 50 infectious particles of herpes simplex virus 1 (HSV-1; strain HFEM) or herpes simplex virus 2 (HSV-2; strain MS) in 100 μl of phosphate-buffered saline. The virus was adsorbed for 1 hour at room temperature. After adsorption, residual inoculum was removed from each well and replaced with 0.5 ml of Eagle's MEM containing 5% newborn calf serum and 0.9% agarose (A37). Once the agarose had set, dilutions of the test compound, which had been prepared in Eagle's MEM (containing 5% newborn calf serum), were added, each well receiving 0.5 ml of liquid overlay. The test compound was diluted to give the following series of concentrations: 200, 60, 20, 6 . . . 0.06 μg/ml; final concentrations in the assay ranged, therefore, between 100 μg/ml and 0.03 μg/ml. The infected cultures were incubated at 37° C. in a humidified atmosphere of 5% CO2 until plaques were clearly visible (2 or 3 days for Vero cells, usually 1 day for MRC-5 cells).
(§3) Cultures from 1 and 2 were fixed in formal saline, the agarose overlays were carefully washed off, and then the cell monolayers were stained with carbol fuchsin. A stereo microscope was used to count plaques. The IC50 (concentration of drug which inhibits the number of plaques formed by 50% relative to the number of plaques observed in virus control monolayers) of the test compound was calculated. In addition, the monolayers were examined for evidence of drug-induced cytotoxicity; the minimum concentration at which cytotoxicity occurs was recorded.

[2] = tested on: herpes simplex virus 1 (HSV-1; strain HFEM); experiment: Plaque Reduction Test for Herpes Simplex Virus 1 (in Vero cells); settings: Human alphaherpesvirus 1, read-out: IC50 Herpes Simplex virus Type 1
Protocol: as §1, §2, §3

[3] = tested on: varicella zoster virus (VZV; Ellen strain); experiment: Plaque Reduction Test for Varicella Zoster-Virus (in MRC-5 cells); settings: Human alphaherpesvirus 3, MRC5; Ellen strain in MRC-5 cells
Protocol: 2. Plaque Reduction Test for Varicella Zoster-Virus
as §2, with “MRC-5 cells” for “Cells (Vero or MRC-5)”, “varicella zoster” for “herpes simplex”, “(VZV; Ellen strain)” for “1 (HSV-1; strain HFEM) or herpes simplex virus 2 (HSV-2; strain MS)”, “heat-inactivated foetal” for “newborn”, “(5” for “(2”, “6 days).” for “3 days for Vero cells, usually 1 day for MRC-5 cells).”
as §3

[4] = tested on: visna virus (strain K184); experiment: CPE Inhibition Test (Established Monolayer) for Lentiviruses (in SCP cells); settings: Visna-maedi virus, read-out: MIC Visna Virus (minimum concentration giving complete protection of the cell monolayers)
Protocol: 3. CPE Inhibition Test (Established Monolayer) for Lentiviruses
3×10^4 sheep choroid plexus (SCP) cells were plated into individual wells of a 96 well microtitre plate in 100 μl of Eagle's MEM with Hanks' salts containing 10% heat inactivated foetal calf serum (FCS). When monolayers had become established (after 1 or 2 days growth) they were washed with 200 μl of maintenance medium (Eagle's MEM with Hanks' salts containing 0.5% FCS) and infected with 100 μl of visna virus (strain K184) in maintenance medium (30 TCID50 /ml). Test samples were diluted with maintenance medium in further 96 well microtitre plates over the range 200-0.06 μg/ml by 3-fold dilution steps. 100 μl of the diluted samples was then transferred directly onto virus-infected monolayers (final concentration range therefore […]) and incubated at in a humidified atmosphere containing 5% CO2 until virus-induced CPE was maximal in the untreated virus-infected controls (usually 12-14 days). The plates were fixed with formal saline and stained with crystal violet. Virus-induced CPE was then scored microscopically and the minimum concentration of sample giving complete protection of the cell monolayers (MIC) determined.

| Compound | IC50 [1] [µg/mL] | IC50 [2] [µg/mL] | IC50 [3] [µg/mL] | MIC [4] [µg/mL] |
| --- | --- | --- | --- | --- |
| Nc1nc2c(ncn2OCCCP(=O)(O)O)c(=O)[nH]1 [Example 1, 9-(3-Phosphonopropoxy)guanine] | > 100 | > 100 | 73 (≈ 252 µM) | 3 (≈ 10.4 µM) |
| Nc1nc2c(ncn2OCCCCP(=O)(O)O)c(=O)[nH]1 [Example 3, 9-(4-Phosphonobutoxy)guanine] | 23 (≈ 75.9 µM) | 62 (≈ 204 µM) | 6 (≈ 19.8 µM) | 1 (≈ 3.3 µM) |
| Nc1nc(N)c2ncn(OCCCCP(=O)(O)O)c2n1 [Example 5, 2,6-Diamino-9-(4-phosphonobutoxy)purine] | > 100 | > 100 | 17 (≈ 56.2 µM) | 10 (≈ 33.1 µM) |
| Nc1ncnc2c1ncn2OCCCCP(=O)(O)O [Example 7, 9-(4-Phosphonobutoxy)adenine] | > 100 | > 100 | > 100 | 100 (≈ 348 µM) |
| Nc1ncnc2c1ncn2OC(CO)CCP(=O)(O)O (stereo not shown) [Example 11] | > 100 | > 100 | > 100 | 30 (≈ 98.9 µM) |
| Nc1nc2c(ncn2OCC(O)CCP(=O)(O)O)c(=O)[nH]1 (stereo not shown) [Example 13, 9-(2-Hydroxy-4-phosphonobutoxy)guanine] | > 100 | > 100 | 29 (≈ 90.8 µM) | 10 (≈ 31.3 µM) |
| Nc1ncnc2c1ncn2OCC(O)CCP(=O)(O)O (stereo not shown) [Example 15, 9-(2-Hydroxy-4-phosphonobutoxy)adenine] | > 100 | > 100 | > 100 | 100 (≈ 330 µM) |
| Nc1nc2c(ncn2OC(CO)CCP(=O)(O)O)c(=O)[nH]1 (stereo not shown) [Example 16, 9-[1-(Hydroxymethyl)-3-phosphonopropoxy]guanine] | > 100 | > 100 | > 100 | 100 (≈ 313 µM) |
| Nc1nc2c(ncn2OCC(CO)CCP(=O)(O)O)c(=O)[nH]1 (stereo not shown) [Example 18, 9-[2-(Hydroxymethyl)-4-phosphonobutoxy]guanine] | > 100 | > 100 | 5 (≈ 15 µM) | 1 (≈ 3 µM) |
| Nc1nc(N)c2ncn(OCC(CO)CCP(=O)(O)O)c2n1 (stereo not shown) [Example 20] | > 100 | > 100 | 17 (≈ 51.2 µM) | 10 (≈ 30.1 µM) |
